Laboratory results as given in PMC5548696 (Bioorganic & medicinal chemistry letters, 2017).
Each block holds one compound with its values, some of them ahead of it.

What was measured:
Recombinant human ENGase = target: T1, Recombinant human ENGase (Homo sapiens, UniProt Q8NFI3); assay type: biochemical; details: 100 μM drug concentration; first round, 13 drugs
T1 sequence (Q8NFI3 1-743): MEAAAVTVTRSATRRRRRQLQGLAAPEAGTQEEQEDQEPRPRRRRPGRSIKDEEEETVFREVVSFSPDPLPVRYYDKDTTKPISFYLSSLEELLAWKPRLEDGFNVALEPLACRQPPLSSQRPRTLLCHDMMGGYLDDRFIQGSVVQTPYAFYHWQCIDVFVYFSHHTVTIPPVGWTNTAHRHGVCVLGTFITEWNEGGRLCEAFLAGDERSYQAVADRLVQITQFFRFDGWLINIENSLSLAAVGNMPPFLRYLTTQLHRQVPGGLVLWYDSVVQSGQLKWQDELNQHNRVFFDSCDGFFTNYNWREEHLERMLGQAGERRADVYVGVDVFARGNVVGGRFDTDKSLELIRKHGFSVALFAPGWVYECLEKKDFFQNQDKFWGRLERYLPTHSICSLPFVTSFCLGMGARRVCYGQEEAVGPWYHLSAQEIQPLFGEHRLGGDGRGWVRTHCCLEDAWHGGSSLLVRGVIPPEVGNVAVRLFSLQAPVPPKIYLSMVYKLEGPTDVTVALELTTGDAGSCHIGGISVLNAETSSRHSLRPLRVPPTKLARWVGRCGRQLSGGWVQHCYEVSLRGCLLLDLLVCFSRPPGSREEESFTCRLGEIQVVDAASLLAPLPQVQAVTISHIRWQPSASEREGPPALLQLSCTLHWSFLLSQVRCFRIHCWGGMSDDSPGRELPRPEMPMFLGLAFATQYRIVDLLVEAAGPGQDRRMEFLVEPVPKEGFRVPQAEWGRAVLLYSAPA

H+/K+ ATPase = details: cited from earlier work
human ENGase = details: read-out: IC50, human ENGase inhibitors; earlier reports; cited from earlier work

- inhibition of ENGase enzyme activity, preliminary ENGase inhibitor screening (Recombinant human ENGase): inhibited ENGase enzyme activity
Compound: Cc1c(OCC(F)(F)F)ccnc1C[S+]([O-])c1nc2ccccc2[nH]1 (stereo not drawn) [Lansoprazole]

Compound: COCCCOc1ccnc(C[S+]([O-])c2nc3ccccc3[nH]2)c1C (stereo not drawn) [Rabeprazole]
- target affinity (H+/K+ ATPase): ~ 70 nM

Compound: Man9GlcNAc-thiazoline
- IC50 (human ENGase): 420 nM
